Assay results taken from US20190256827A1, “EPIGENOME EDITING SYSTEMS AND METHODS” (STC.UNM, priority 2017, published 2019).

Assays:
[1] = tested on: GRM2 locus in HEK293T cells; assay: ChIP-qPCR of FLAG-ABI-P300 and H3K27Ac at the GRM2 locus; assay type: cell-based, human
Experimental: To determine if the new method can be used to modify H3K27Ac at other gene loci, sgRNAs were designed that target the promoter region of other genes with low expression levels in HEK293T cells, including GRM2, HBA and MYOD1 (Table 1).
Human embryonic kidney cell HEK293T (American Type Culture Collection, Manassas, Va.) was cultured in Dulbecco's modified Eagle's medium (DMEM) (Gibco) with 10% FBS (Atlanta Biologicals), 1× GlutaMax (Gibco, Thermo Fisher Scientific, Inc., Waltham, Mass.), and 1× penicillin/streptomycin (Pen/Strep; Gibco, Thermo Fisher Scientific, Inc., Waltham, Mass.). Cells (100,000/ml) were plated in 24-well or 10-cm cell culture plate the day before transfection. For each well of 24-well plate transfection, 500 ng of dCas9-PYL-HA, 420 ng of FLAG-ABI-P300, and a total amount of 200-ng mix of gRNAs, with a 50-ng per each gRNA, were mixed with 50×(v/w) Opti-MEM (Gibco, Thermo Fisher Scientific, Inc., Waltham, Mass.), then incubate with the same volume of 3 μg PEI-Opti-MEM solution for 20 minutes at room temperature. Then, 100 μL of PEI-combined plasmids were added to every single well of 24-well plate and cultured for 24 hours before experiments were performed. For a 10 cm plate, 1 mL of PEI-combined plasmids were needed. After six hours transfection, cells were washed and incubated for another 1-72 hours before experiments were performed.
ChIP protocol was optimized from the method in Molecular Cloning, Fourth edition (Cold Spring Harbor Laboratory Press, 2012). In brief, cells cultured in a 10-cm plate were fixed with 1 mL of cross-linking buffer (0.1 M NaCl, 1 mM EDTA, 0.5 mM EGTA, 50 mM HEPES and 11% formaldehyde), and shaken in room temperature for 15 minutes. Then 1.1 mL of 1.25 M glycine was added to the solution to stop crosslinking. After washing three times in ice cold PBS, cells were scraped and suspended in 10 mL of lysis buffer (50 mM HEPES, 140 mM NaCl, 1 mM EDTA, 10% Glycerol, 0.5% NP40, 0.25% Triton X-100), and rocked at 4° C. for 10 minutes. […]

[2] = tested on: GAL4DBD-ABI/VP16AD-PYL, inducible luciferase reporter in HEK293T cells; assay: Inducible luciferase reporter assay, ABA-responsive system (orthogonality); assay type: cell-based, human; settings: treated with IAA or ABA or DMSO for 24 hours
Experimental: To ensure that IAA and ABA could be used to independently control two histone modification editing events, the orthogonality between these two systems was tested. HEK293T cells were co-transfected with either GAL4DBD-TIR1*/VP16AD-AID (responsive to IAA) or GAL4DBD-ABI/VP16AD-PYL (responsive to ABA), and an inducible luciferase reporter construct. This was followed by treating cells with either IAA or ABA (or DMSO as a control) for 24 hours. […] To test the reversibility of IAA-induced dimerization, in which it was critical to achieve precise temporal control, HEK293T cells were co-transfected with GAL4DBD-TIR1*, VP16AD-AID, and an inducible luciferase expression construct, and then treated cells with 50 μM IAA for 24 hours. Cells were then washed with fresh media without IAA to remove the inducer (or no washing as a control). They were then harvested for luciferase assays after washing.

[3] = GRM2 sgRNAs, ABA treatment for 48 hours

## CC1=CC(=O)CC(C)(C)[C@@]1(O)/C=C/C(C)=C\C(=O)O [ABA, abscisic acid]
[1]; ABA 4-24 hours, then washing and 24 hours without ABA
  induction and reversibility of H3K27Ac enrichment at the GRM2 locus: rapidly induced upon ABA addition and reversed after ABA removal
[1]; [3]
  enrichment of FLAG-ABI-P300 at the GRM2 locus: causes the enrichment
  enrichment of H3K27Ac at the GRM2 locus: causes the enrichment
[2]
  luciferase expression, ABA-responsive system: Only the proper combination of inducer with corresponding binding proteins could induce luciferase expression
